Results published in patent US6632817B2, “Fluoromethoximino compounds” (priority 1997, dated 2003).
Blank lines part the entries; values can stand above or below the compound they belong to.

Experiments:
Plasmopara viticola = assay: Plasmopara test (grapevine)/protective; assay type: in vivo; details: protective, application rate 100 g/ha, evaluation 6 days after inoculation; for pest or weed control at 100 g/ha: Plasmopara viticola, 144 h, read-out: Efficacy in %
Procedure: Plasmopara Test (Grapevine)/Protective
(§1) Solvent: 47 parts by weight of acetone
(§2) Emulsifier: 3 parts by weight of alkylaryl polyglycol ether
(§3) To produce a suitable preparation of active compound, 1 part by weight of active compound is mixed with the stated amounts of solvent and emulsifier, and the concentrate is diluted with water to the desired concentration.
To test for protective activity, young plants are sprayed with the preparation of active compound at the stated application rate. After the spray coating has dried on, the plants are inoculated with an aqueous spore suspension of Plasmopara viticola and then remain in an incubation cabin at approximately 20° C. and 100% relative atmospheric humidity for 1 day. The plants are subsequently placed in a greenhouse at approximately 21° C. and approximately 90% relative atmospheric humidity for 5 days. The plants are then moistened and placed in an incubation cabin for 1 day.
Evaluation is carried out 6 days after the inoculation. 0% means an efficacy which corresponds to that of the control, whereas an efficacy of 100% means that no infection is observed.

[1] = logP determination by HPLC (EEC Directive 79/831 Annex V. A8); assay type: physicochemical; details: HPLC gradient method, acetonitrile/0.1% aqueous phosphoric acid
Procedure: The logP values are determined in accordance with EEC Directive 79/831 Annex V. A8 by HPLC (gradient method, acetonitrile/0.1% aqueous phosphoric acid).

Puccinia recondita = assay: Puccinia test (wheat)/protective; assay type: in vivo; details: protective, application rate 250 g/ha, evaluation 10 days after inoculation; for pest or weed control at 250 g/ha: Puccinia recondita, 240 h, read-out: Efficacy in %
Procedure: Puccinia Test (Wheat)/Protective
Solvent: 25 parts by weight of N,N-dimethylacetamide
Emulsifier: 0.6 part by weight of alkylaryl polyglycol ether
as §3
To test for protective activity, young plants are sprayed with the preparation of active compound at the stated application rate. After the spray coating has dried on, the plants are sprayed with a conidia suspension of Puccinia recondita. The plants remain in an incubation cabin at 20° C. and 100% relative atmospheric humidity for 48 hours.
The plants are then placed in a greenhouse at a temperature of approximately 20° C. and a relative atmospheric humidity of 80% to promote the development of rust pustules.
Evaluation is carried out 10 days after the inoculation. 0% means an efficacy which corresponds to that of the control, whereas an efficacy of 100% means that no infection is observed.

Venturia inaequalis = assay: Venturia test (apple)/protective; assay type: in vivo; details: protective, evaluation 12 days after inoculation; for pest or weed control at 10 g/ha / Efficacy in %: application rate 10 g/ha
Procedure: Venturia Test (Apple)/Protective
as §1, §2, §3
To test for protective activity, young plants are sprayed with the preparation of active compound at the stated application rate. After the spray coating has dried on, the plants are inoculated with an aqueous conidia suspension of the causative organism of apple scab Venturia inaequalis and then remain in an incubation cabin at approximately 20° C. and 100% relative atmospheric humidity for 1 day.
The plants are then placed in a greenhouse at approximately 21° C. and a relative atmospheric humidity of approximately 90%.
Evaluation is carried out 12 days after the inoculation. 0% means an efficacy which corresponds to that of the control, whereas an efficacy of 100% means that no infection is observed.

[2] = Venturia inaequalis, 288 h, read-out: Efficacy in %

SMILES: CNC(=O)/C(=N\OCF)c1ccccc1Oc1ncnc(Oc2ccccc2C#N)c1F [drawing 60]
Efficacy in % (Plasmopara viticola): 96%

chromatographic logP [1]: 3.2
SMILES: CNC(=O)/C(=N\OCF)c1ccccc1Oc1nc(-c2ccc(OC(F)F)cc2)ns1 [Example 26]
pest or weed control at 100 g/ha (Plasmopara viticola): ≥ 98%
pest or weed control at 250 g/ha (Puccinia recondita): ≥ 80%
pest or weed control at 10 g/ha (Venturia inaequalis; [2]): ≥ 99%

SMILES: CNC(=O)/C(=N\OCF)c1ccccc1Oc1nc(-c2cccc(C(F)(F)F)c2)ns1 [drawing 62]
Efficacy in % (Plasmopara viticola): 100%

chromatographic logP [1]: 3.3
SMILES: CNC(=O)/C(=N\OCF)c1ccccc1Oc1ncnc(Oc2cccc(C)c2C)c1F [Example 9]
pest or weed control at 100 g/ha (Plasmopara viticola): ≥ 98%
pest or weed control at 250 g/ha (Puccinia recondita): ≥ 80%
pest or weed control at 10 g/ha (Venturia inaequalis; [2]): ≥ 99%

SMILES: CNC(=O)/C(=N\OCF)c1ccccc1Oc1ncnc(Oc2ccccc2C)c1F [drawing 75]
Efficacy in % (Venturia inaequalis): 100%

SMILES: CNC(=O)C(NOCF)c1ccccc1Oc1ncnc(Oc2ccccc2[N+](=O)[O-])c1F (stereo not shown) [drawing 89]
pest or weed control at 250 g/ha (Puccinia recondita): 100%

SMILES: CNC(=O)/C(=N\OCF)c1ccccc1Oc1ncnc(Oc2ccccc2OC(F)F)c1F [drawing 56]
Efficacy in % (Plasmopara viticola): 96%

SMILES: CNC(=O)/C(=N\OCF)c1ccccc1Oc1ncnc(Oc2cccc(C)c2C)c1F [drawing 90]
Efficacy in % (Puccinia recondita): 100%

SMILES: CNC(=O)/C(=N\OCF)c1ccccc1Oc1nc(-c2ccc(OC(F)(F)F)cc2)ns1 [drawing 63]
Efficacy in % (Plasmopara viticola): 100%

SMILES: CNC(=O)C(=NOCF)c1ccccc1Oc1ncnc(Oc2ccccc2Cl)c1F [drawing 69]
Efficacy in % (Venturia inaequalis): 99%

SMILES: CNC(=O)C(NOCF)c1ccccc1Oc1ncnc(Oc2ccccc2)c1F (stereo not shown) [drawing 88]
pest or weed control at 250 g/ha (Puccinia recondita): 100%

SMILES: CNC(=O)/C(=N\OCF)c1ccccc1Oc1ncnc(Oc2ccccc2C#N)c1F [drawing 91]
Efficacy in % (Puccinia recondita): 100%

SMILES: CNC(=O)/C(=N\OCF)c1ccccc1Oc1ncnc(Oc2ccccc2OC(F)F)c1F [drawing 87]
Efficacy in % (Puccinia recondita): 100%

SMILES: CNC(=O)/C(=N\OCF)c1ccccc1Oc1nc(-c2ccc(OC(F)F)cc2)ns1 [drawing 97]
Efficacy in % (Puccinia recondita): 100%

SMILES: CNC(=O)C(=NOCF)c1ccccc1Oc1nc(-c2ccccc2)ns1 [drawing 70]
Efficacy in % (Venturia inaequalis): 100%

chromatographic logP [1]: 2.9
SMILES: CNC(=O)C(=NOCF)c1ccccc1Oc1nc(-c2ccccc2)ns1 [Example 3, 2-fluoromethoxyimino-N-methyl-2-[2-(3-phenyl-[1,2,4]thiadiazol-5-yloxy)-phenyl]-acetamide]
pest or weed control at 100 g/ha (Plasmopara viticola): ≥ 98%
pest or weed control at 10 g/ha (Venturia inaequalis; [2]): ≥ 99%

SMILES: CNC(=O)C(NOCF)c1ccccc1Oc1ncnc(Oc2ccccc2)c1F (stereo not shown) [drawing 73]
pest or weed control at 10 g/ha (Venturia inaequalis; [2]): 96%

chromatographic logP [1]: 3.8
SMILES: CNC(=O)/C(=N\OCF)c1ccccc1Oc1nc(-c2cccc(OC(F)(F)F)c2)ns1 [Example 23]
pest or weed control at 100 g/ha (Plasmopara viticola): ≥ 98%
pest or weed control at 10 g/ha (Venturia inaequalis; [2]): ≥ 99%

SMILES: CNC(=O)/C(=N\OCF)c1ccccc1Oc1ncnc(Oc2cccc(Cl)c2C)c1F [drawing 53]
Efficacy in % (Plasmopara viticola): 100%

SMILES: CNC(=O)C(NOCF)c1ccccc1Oc1ncnc(Oc2cccc(Cl)c2Cl)c1F (stereo not shown) [drawing 71]
pest or weed control at 10 g/ha (Venturia inaequalis; [2]): 96%

SMILES: CNC(=O)/C(=N\OCF)c1ccccc1Oc1nc(-c2cccc(OC(F)(F)F)c2)ns1 [drawing 54]
Efficacy in % (Plasmopara viticola): 100%

SMILES: CNC(=O)/C(=N\OCF)c1ccccc1Oc1ncnc(Oc2ccccc2C)c1F [drawing 92]
Efficacy in % (Puccinia recondita): 100%

SMILES: COC(=O)C(=NOCF)c1ccccc1Oc1ncnc(Oc2ccccc2Cl)c1F [drawing 68]
Efficacy in % (Venturia inaequalis): 100%

SMILES: CNC(=O)/C(=N\OCF)c1ccccc1Oc1ncnc(Oc2ccccc2C)c1F [drawing 52]
Efficacy in % (Plasmopara viticola): 100%

SMILES: CNC(=O)/C(=N\OCF)c1ccccc1Oc1ncnc(Oc2ccccc2Cl)c1F [drawing 81]
pest or weed control at 10 g/ha (Venturia inaequalis; [2]): 100%

SMILES: COC(=O)C(=NOCF)c1ccccc1Oc1ncnc(Oc2ccccc2Cl)c1F [drawing 84]
Efficacy in % (Puccinia recondita): 80%

chromatographic logP [1]: 3.32
SMILES: CNC(=O)/C(=N\OCF)c1ccccc1Oc1ncnc(Oc2cccc(C)c2Cl)c1F [Example 27]
pest or weed control at 100 g/ha (Plasmopara viticola): ≥ 98%

SMILES: COC(=O)C(=NOCF)c1ccccc1Oc1ncnc(Oc2ccccc2Cl)c1F [drawing 50]
Efficacy in % (Plasmopara viticola): 98%

SMILES: CNC(=O)/C(=N\OCF)c1ccccc1Oc1nc(-c2ccc(C(F)(F)F)cc2)ns1 [drawing 78]
pest or weed control at 19 g/ha (Venturia inaequalis; Venturia inaequalis, 288 h, application rate 19 g/ha, read-out: Efficacy in %): 100%

SMILES: CNC(=O)/C(=N\OCF)c1ccccc1Oc1nc(-c2ccc(OC(F)F)cc2)ns1 [drawing 66]
Efficacy in % (Plasmopara viticola): 100%

SMILES: CNC(=O)C(=NOCF)c1ccccc1Oc1nc(-c2ccccc2)ns1 [drawing 55]
Efficacy in % (Plasmopara viticola): 100%

SMILES: CNC(=O)C(NOCF)c1ccccc1Oc1ncnc(Oc2ccccc2)c1F (stereo not shown) [drawing 57]
pest or weed control at 100 g/ha (Plasmopara viticola): 100%

SMILES: CNC(=O)/C(=N\OCF)c1ccccc1Oc1ncnc(Oc2cccc(Cl)c2C)c1F [drawing 76]
Efficacy in % (Venturia inaequalis): 98%

SMILES: CNC(=O)/C(=N\OCF)c1ccccc1Oc1ncnc(Oc2ccccc2Cl)c1F [drawing 96]
pest or weed control at 250 g/ha (Puccinia recondita): 100%

SMILES: CNC(=O)/C(=N\OCF)c1ccccc1Oc1ncnc(Oc2cccc(C)c2C)c1F [drawing 59]
Efficacy in % (Plasmopara viticola): 100%

SMILES: CNC(=O)/C(=N\OCF)c1ccccc1Oc1nc(-c2ccc(C(F)(F)F)cc2)ns1 [drawing 93]
Efficacy in % (Puccinia recondita): 100%

SMILES: CNC(=O)/C(=N\OCF)c1ccccc1Oc1ncnc(Oc2cccc(C)c2C)c1F [drawing 74]
Efficacy in % (Venturia inaequalis): 100%

chromatographic logP [1]: 2.8
SMILES: COC(=O)C(=NOCF)c1ccccc1OC1CCCCO1 (stereo not shown) [Example (VI-1), methyl 2-fluoromethoxyimino-2-[2-(tetrahydropyran-2-yloxy)-phenyl]-acetate]

SMILES: CNC(=O)C(=NOCF)c1ccccc1Oc1ncnc(Oc2ccccc2Cl)c1F [drawing 85]
Efficacy in % (Puccinia recondita): 100%

SMILES: CNC(=O)/C(=N\OCF)c1ccccc1Oc1ncnc(Oc2ccccc2Cl)c1F [drawing 64]
pest or weed control at 100 g/ha (Plasmopara viticola): 100%

SMILES: CNC(=O)/C(=N\OCF)c1ccccc1Oc1nc(-c2ccc(C(F)(F)F)cc2)ns1 [drawing 61]
Efficacy in % (Plasmopara viticola): 100%

SMILES: CNC(=O)/C(=N\OCF)c1ccccc1Oc1nc(-c2ccc(OC(F)(F)F)cc2)ns1 [drawing 95]
Efficacy in % (Puccinia recondita): 100%

SMILES: CNC(=O)/C(=N\OCF)c1ccccc1Oc1nc(-c2cccc(C(F)(F)F)c2)ns1 [drawing 79]
Efficacy in % (Venturia inaequalis): 100%

chromatographic logP [1]: 1.6
SMILES: COC(=O)C(=NOCF)c1ccccc1O [Example (II-1), methyl 2-fluoromethoxyimino-2-(2-hydroxyphenyl)-acetate]

SMILES: CNC(=O)/C(=N\OCF)c1ccccc1Oc1nc(-c2cccc(OC(F)(F)F)c2)ns1 [drawing 77]
Efficacy in % (Venturia inaequalis): 100%

SMILES: CNC(=O)/C(=N\OCF)c1ccccc1Oc1ncnc(Oc2cccc(C)c2Cl)c1F [drawing 67]
Efficacy in % (Plasmopara viticola): 100%

SMILES: CNC(=O)/C(=N\OCF)c1ccccc1Oc1nc(-c2ccc(OC(F)(F)F)cc2)ns1 [drawing 80]
Efficacy in % (Venturia inaequalis): 100%

SMILES: CNC(=O)/C(=N\OCF)c1ccccc1Oc1nc(-c2ccc(OC(F)F)cc2)ns1 [drawing 83]
Efficacy in % (Venturia inaequalis): 99%

SMILES: CNC(=O)C(=NOCF)c1ccccc1Oc1ncnc(Oc2ccccc2Cl)c1F [drawing 51]
Efficacy in % (Plasmopara viticola): 100%

SMILES: CNC(=O)/C(=N\OCF)c1ccccc1Oc1nc(-c2cccc(OC(F)F)c2)ns1 [drawing 65]
pest or weed control at 100 g/ha (Plasmopara viticola): 99%

SMILES: CNC(=O)/C(=N\OCF)c1ccccc1Oc1nc(-c2cccc(OC(F)F)c2)ns1 [drawing 82]
pest or weed control at 10 g/ha (Venturia inaequalis; [2]): 100%

SMILES: CNC(=O)/C(=N\OCF)c1ccccc1Oc1ncnc(Oc2ccccc2OC(F)F)c1F [drawing 72]
Efficacy in % (Venturia inaequalis): 95%

chromatographic logP [1]: 1.1
SMILES: CNC(=O)C(=NOCF)c1ccccc1O [Example (II-2), 2-fluoromethoxyimino-2-(2-hydroxyphenyl)-N-methylacetamide]

SMILES: CNC(=O)C(NOCF)c1ccccc1Oc1ncnc(Oc2cccc(Cl)c2Cl)c1F (stereo not shown) [drawing 86]
pest or weed control at 250 g/ha (Puccinia recondita): 100%

SMILES: CNC(=O)/C(=N\OCF)c1ccccc1Oc1nc(-c2cccc(C(F)(F)F)c2)ns1 [drawing 94]
Efficacy in % (Puccinia recondita): 100%

SMILES: CNC(=O)C(NOCF)c1ccccc1Oc1ncnc(Oc2ccccc2[N+](=O)[O-])c1F (stereo not shown) [drawing 58]
pest or weed control at 100 g/ha (Plasmopara viticola): 96%
